Data set [1] has as its target T1, Mu-type opioid receptor (Homo sapiens, UniProt P35372). In words: Displacement of [3H]DAMGO from MOP (unknown origin) stably expressed in CHO cell membrane incubated for 90 mins by scintillation counter analysis. The data set is classed as cell membranes. (In a radioligand displacement assay an active substance lowers the binding of a labelled ligand.)
Data set [2] addresses T2, Delta-type opioid receptor (Homo sapiens, UniProt P41143). Kind of data set: Displacement of [3H]DPDPE from DOP (unknown origin) stably expressed in CHO cell membrane incubated for 90 mins by scintillation counter analysis. In kind it is cell membranes.
In data set [3] the target is Kappa-type opioid receptor (Homo sapiens, UniProt P41145). In words: Displacement of [3H]diprenorphine from KOP (unknown origin) stably expressed in CHO cell membrane incubated for 90 mins by scintillation counter analysis. In kind it is cell membranes.
Chain of Kappa-type opioid receptor (P41145 whole entry): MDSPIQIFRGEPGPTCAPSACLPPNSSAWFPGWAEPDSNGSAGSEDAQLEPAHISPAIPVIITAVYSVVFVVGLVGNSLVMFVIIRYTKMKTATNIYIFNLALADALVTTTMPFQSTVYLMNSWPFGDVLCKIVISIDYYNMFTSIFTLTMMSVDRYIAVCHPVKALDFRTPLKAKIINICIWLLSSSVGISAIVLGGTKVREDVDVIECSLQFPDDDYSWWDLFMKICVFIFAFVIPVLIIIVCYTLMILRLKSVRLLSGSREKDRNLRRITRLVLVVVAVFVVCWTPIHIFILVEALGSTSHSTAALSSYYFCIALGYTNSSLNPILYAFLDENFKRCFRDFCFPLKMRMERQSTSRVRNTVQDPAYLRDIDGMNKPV
Data set [4] deals with T1, Mu-type opioid receptor. Kind of data set: Binding affinity to MOP (unknown origin).
The target in data set [5] is T2, Delta-type opioid receptor. Kind of data set: Binding affinity to DOP (unknown origin).
Data set [6] concerns Mus musculus. In words: Antinociceptive activity in Kunming mouse assessed as heat paw withdrawal measured after 10 secs administered icv. In kind it is functional. The conditions noted are these: time 10 sec, 10 s.
A short description of data set [7]: Stability in mouse serum assessed as half life. The data set is classed as ADME, cell-free.
The nature of data set [8]: Stability in rat brain homogenate assessed as half life. The data set is classed as ADME, tissue-based.
Data set [9] is described as follows: Half life in mouse liver microsomes. In kind it is ADME, Microsome.
The test system of data set [10] is Mus musculus. In words: Antinociceptive activity in icv dosed C57BL/6J mouse assessed as tail withdrawal latency from warm water. In kind it is functional.
The nature of data set [11]: Toxicity in icv dosed C57BL/6J mouse assessed as antinociceptive activity tolerance. The data set is classed as organism-based. The conditions noted are these: in vivo, icv_or_intrathecal.
For data set [12], the system named is Mus musculus. In words: Antinociceptive activity in po dosed C57BL/6J mouse assessed as tail withdrawal latency from warm water. The data set is classed as functional.
Data set [13] has as its system Rattus norvegicus. Kind of data set: Antinociceptive activity in rat administered icv by tail pressure test relative to control. In kind it is functional. Also noted: concentration or dose not given beside the values.
For data set [14], the target named is Mu-type opioid receptor (Cavia porcellus, UniProt P97266). Kind of data set: Antagonist activity at guinea pig ileum MOP. In kind it is functional, tissue-based.
Chain of Mu-type opioid receptor (Cavia porcellus, UniProt P97266) (P97266 whole entry): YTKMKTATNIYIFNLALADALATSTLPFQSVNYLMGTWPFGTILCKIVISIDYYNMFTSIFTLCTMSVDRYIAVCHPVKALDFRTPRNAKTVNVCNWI
Data set [15] deals with Mu-type opioid receptor (Mus musculus, UniProt P42866). In words: Antagonist activity at mouse vas deferns MOP. In kind it is functional.
Chain of Mu-type opioid receptor (Mus musculus, UniProt P42866) (P42866 whole entry): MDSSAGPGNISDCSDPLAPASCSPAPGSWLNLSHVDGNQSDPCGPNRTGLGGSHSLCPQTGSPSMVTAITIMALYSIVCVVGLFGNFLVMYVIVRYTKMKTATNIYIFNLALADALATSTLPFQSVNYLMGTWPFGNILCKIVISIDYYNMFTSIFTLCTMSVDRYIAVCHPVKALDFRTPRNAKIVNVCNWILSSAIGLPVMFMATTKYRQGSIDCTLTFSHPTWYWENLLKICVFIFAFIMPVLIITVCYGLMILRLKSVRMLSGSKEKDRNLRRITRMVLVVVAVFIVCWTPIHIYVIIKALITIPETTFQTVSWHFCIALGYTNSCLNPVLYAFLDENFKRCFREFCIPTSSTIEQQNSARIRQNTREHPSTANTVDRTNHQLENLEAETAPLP
Data set [16] addresses T1, Mu-type opioid receptor. In words: Displacement of [3H]DAMGO from human MOP expressed in CHO-K1 cell membrane incubated for 60 mins by Microscint-counting analysis. The data set is classed as cell membranes.
For data set [17], the target named is T2, Delta-type opioid receptor. In words: Displacement of [3H]DPDPE from human DOP expressed in CHO-K1 cell membrane incubated for 60 mins by Microscint-counting analysis. The data set is classed as cell membranes.
Data set [18] addresses T1, Mu-type opioid receptor. Kind of data set: Agonist activity at human MOP expressed in CHO-K1 cell membrane assessed as [35S]GTPgammaS binding. In kind it is functional, cell membranes. (Binding of GTPγS marks nucleotide exchange on a G protein.)
The target in data set [19] is T1, Mu-type opioid receptor. Kind of data set: Agonist activity at human MOP expressed in CHO-K1 cell membrane assessed as [35S]GTPgammaS binding relative to control. The conditions noted are these: filed as agonist. The data set is classed as functional, cell membranes.
In data set [20] the test system is Rattus norvegicus. Kind of data set: Antinociceptive activity in Sprague-Dawley rat assessed as tail flick response in warm water administered icv. In kind it is functional.
Data set [21] deals with T1, Mu-type opioid receptor. In words: Displacement of [3H]DAMGO from MOP (unknown origin) stably expressed in HEK293 cells by liquid scintillation counter analysis. In kind it is cell-based.
The target of data set [22] is T2, Delta-type opioid receptor. In words: Displacement of [3H]DPDPE from DOP (unknown origin) stably expressed in HEK293 cells by liquid scintillation counter analysis. The data set is classed as cell-based.
For data set [23], the target named is T1, Mu-type opioid receptor. In words: Agonist activity at MOP (unknown origin) stably expressed in HEK293 cells assessed as forskolin stimulated cAMP accumulation incubated for 30 mins by radioactivity based scintillation counter analysis. The data set is classed as functional, cell-based. On the technique in general: Cyclic AMP is a second messenger, typically raised through Gs and lowered through Gi signalling.

The target in data set [24] is T1, Mu-type opioid receptor. In words: Agonist activity at MOP (unknown origin) stably expressed in HEK293 cells assessed as forskolin stimulated cAMP accumulation incubated for 30 mins by radioactivity based scintillation counter analysis relative to control. Conditions: filed as agonist. In kind it is functional, cell-based.
Data set [25] is described as follows: Stability in mouse brain homogenate assessed as half life. In kind it is ADME, tissue-based.
Data set [26] concerns Mus musculus. Kind of data set: Antinociceptive activity in mouse administered icv. In kind it is functional.
Data set [27] has as its system Rattus norvegicus. In words: Antinociceptive activity in Sprague-Dawley rat assessed as tail flick response in warm water administered iv. The data set is classed as functional.

Square brackets hold non-standard residues; d marks the D form. Peptide text beside a SMILES is read from it.

As usually defined, the Ki is the dissociation constant of the complex between target and ligand, obtained from inhibition or displacement. By half-life is commonly meant the time in which the quantity being followed falls by half. By IC50 is commonly meant the concentration that gives 50% inhibition. As usually defined, the EC50 is the midpoint of the concentration-response curve. The Emax is the greatest response seen or fitted, relative to the assay's reference.

T2 sequence (P41143 whole entry): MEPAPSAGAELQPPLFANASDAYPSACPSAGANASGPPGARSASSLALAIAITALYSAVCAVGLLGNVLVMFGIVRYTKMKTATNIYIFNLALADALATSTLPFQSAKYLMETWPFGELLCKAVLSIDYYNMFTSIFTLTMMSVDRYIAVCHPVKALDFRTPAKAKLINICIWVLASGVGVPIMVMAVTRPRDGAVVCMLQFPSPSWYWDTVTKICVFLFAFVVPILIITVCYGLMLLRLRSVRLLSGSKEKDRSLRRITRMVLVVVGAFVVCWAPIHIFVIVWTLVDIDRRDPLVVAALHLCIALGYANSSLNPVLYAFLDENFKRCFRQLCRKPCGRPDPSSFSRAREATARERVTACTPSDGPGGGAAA
T1 sequence (P35372 whole entry): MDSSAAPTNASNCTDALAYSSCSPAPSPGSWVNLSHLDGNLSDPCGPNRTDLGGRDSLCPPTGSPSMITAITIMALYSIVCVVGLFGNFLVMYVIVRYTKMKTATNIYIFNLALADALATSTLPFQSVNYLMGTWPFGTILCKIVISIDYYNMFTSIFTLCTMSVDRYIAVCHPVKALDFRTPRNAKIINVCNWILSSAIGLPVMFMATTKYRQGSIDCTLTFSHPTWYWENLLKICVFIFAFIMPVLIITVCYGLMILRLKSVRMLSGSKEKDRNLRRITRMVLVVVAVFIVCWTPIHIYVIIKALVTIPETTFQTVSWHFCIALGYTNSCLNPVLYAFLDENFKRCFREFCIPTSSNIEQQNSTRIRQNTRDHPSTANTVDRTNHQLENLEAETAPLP

For the molecule `C[C@@H]1NC(=O)[C@H]2CCCN2C(=O)[C@H](Cc2ccccc2)NC(=O)[C@H](Cc2c[nH]c3ccccc23)NC1=O`, the Ki on Mu-type opioid receptor [1] is 533 nM; in [2] it was more than 10000 nM; in data set [3], 663 nM.
As for `CCOC(=O)[C@H](Cc1ccccc1)NC(=O)[C@H](Cc1ccccc1)NC(=O)[C@@H]1CCCN1C(=O)[C@@H](N)Cc1ccc(O)cc1`, the inhibitory constant (Ki) on Mu-type opioid receptor [4] was found to be 15 nM; in data set [5], 2940 nM. Further, the ED50 with Mus musculus [6] was 8.4 nmol. In addition, the half-life in [7] worked out at 29.9 min; in [8], 58.6 min.
Turning to `O=C1N[C@H](Cc2c[nH]c3ccccc23)C(=O)N[C@H](Cc2ccccc2)C(=O)N2CCC[C@@H]2C(=O)N[C@H]1Cc1ccccc1`, the half-life in data set [9] is not above 30 min. Moreover, the inhibition constant Ki (at Mu-type opioid receptor [1]; in data set [3]) was more than 100000 nM each time. For the same molecule, the ED50 in the data set on Mus musculus [10] came to 2.39 nmol.
`O=C1N[C@H](Cc2ccccc2)C(=O)N[C@H](Cc2c[nH]c3ccccc23)C(=O)N[C@@H](Cc2ccccc2)C(=O)N2CCC[C@H]12` registered a half-life in data set [9] not above 30 min. The ED50 in [11] amounted to 0.49 nmol; with Mus musculus [10] it was 0.56 nmol; with Mus musculus [12], 4.72 mg/kg.
In the data set with Rattus norvegicus [13], `C[C@@H](NC(=O)[C@@H](N)Cc1ccc(O)cc1)C(=O)N[C@@H](Cc1ccccc1)C(=O)NCC(=O)N[C@@H](Cc1ccc(O)cc1)C(N)=O` (H-Y[dA]FGY-NH2) registered an Activity of 27%. Also, the Ki on Mu-type opioid receptor [4] amounted to 0.98 nM; in data set [5] it was 88 nM. The IC50 against Mu-type opioid receptor [14] is 2.9 nM; on Mu-type opioid receptor [15] it was 23.8 nM.
For `NC(=O)[C@@H]1CC(=O)NCCCC[C@@H](NC(=O)[C@@H](N)Cc2ccc(O)cc2)C(=O)N[C@@H](Cc2c[nH]c3ccccc23)C(=O)N[C@@H](Cc2ccccc2)C(=O)N1`, the Ki at Mu-type opioid receptor [16] stood at 0.49 nM; in data set [17] it was 83 nM. On Mu-type opioid receptor [18], the EC50 is 0.94 nM. Besides, the Emax at Mu-type opioid receptor [19] worked out at 100%. Moreover, in the data set on Rattus norvegicus [20], the ED50 is listed as 0.2 nmol.
Take `C=C(C(N)=O)[C@@H](NC(=O)[C@H](Cc1ccccc1)NC(=O)[C@@H](C)N(C)C(=O)[C@@H](N)Cc1c(C)cc(O)cc1C)c1ccccc1`: the Ki on Mu-type opioid receptor [21] turned out to be 0.0511 nM; in [22], 55.7 nM. Also, the half-maximal effective concentration (EC50) on Mu-type opioid receptor [23] stood at 0.000515 nM. Also, the Emax on Mu-type opioid receptor [24] is 95.1%. For the same molecule, the half-life in [7] and in data set [25] was not below 300 min in each case.
`N=C(N)NCCC[C@@H](NC(=O)[C@@H](N)Cc1ccc(O)cc1)C(N)=O`: the IC50 on Mu-type opioid receptor [14] stood at 44000 nM. This molecule also registered an ED50 with Mus musculus [26] of 47000 pmol.
With `NC(=O)[C@@H]1CCC(=O)NCCCC[C@@H](NC(=O)[C@@H](N)Cc2ccc(O)cc2)C(=O)N[C@@H](Cc2c[nH]c3ccccc23)C(=O)N[C@@H](Cc2ccccc2)C(=O)N1`, the Ki at Mu-type opioid receptor [16] was 0.63 nM; in data set [17] it was 83 nM. The EC50 at Mu-type opioid receptor [18] worked out at 0.43 nM. For the same molecule, at Mu-type opioid receptor [19], the Emax was determined as 100%. Besides, the results for the ED50 in the data set on Rattus norvegicus [20] and in the data set on Rattus norvegicus [27] were 0.021 nmol and 2.2 mg/kg, respectively.
In the data set on Rattus norvegicus [13], `C[C@@H](NC(=O)[C@@H](N)Cc1ccc(O)cc1)C(=O)N[C@@H](Cc1ccccc1)C(=O)NCC(=O)N[C@@H](Cc1ccc(O)cc1)C(=O)N1CCC[C@H]1C(N)=O` gave an Activity of 25%. Moreover, the inhibition constant Ki at Mu-type opioid receptor [4] was found to be 1.6 nM; in data set [5], 320 nM. The values for the IC50 against Mu-type opioid receptor [14] and on Mu-type opioid receptor [15] were 2.7 nM and 43.2 nM, respectively.
`C[C@@H](NC(=O)[C@@H](N)Cc1ccc(O)cc1)C(=O)N[C@@H](Cc1ccccc1)C(=O)NCC(=O)O` (H-Y[dA]FG-OH): the Activity in the data set on Rattus norvegicus [13] is 25%. In addition, the values for the Ki (at Mu-type opioid receptor [4]; in data set [5]) were 11.9 nM and 1800 nM, respectively. Further, the IC50 at Mu-type opioid receptor [14] was 34.5 nM; at Mu-type opioid receptor [15], 263 nM.
`C[C@@H](NC(=O)[C@@H](N)Cc1ccc(O)cc1)C(=O)N[C@@H](Cc1ccccc1)C(N)=O`: the Activity in the data set on Rattus norvegicus [13] is given as less than 0.2%. Further, the IC50 was found to be 262 nM on Mu-type opioid receptor [14] and 4050 nM against Mu-type opioid receptor [15].
On to `C=C(C(N)=O)[C@@H](NC(=O)[C@H](Cc1c[nH]c2ccccc12)NC(=O)[C@@H](C)N(C)C(=O)[C@@H](N)Cc1c(C)cc(O)cc1C)c1ccccc1`, for which the Ki at Mu-type opioid receptor [21] amounted to 0.032 nM; in data set [22], 37.2 nM. The EC50 on Mu-type opioid receptor [23] was 0.004 nM. The Emax on Mu-type opioid receptor [24] was 98.1%. The half-life in data set [7] and in data set [25] was not below 300 min throughout.
On to `C[C@@H](NC(=O)[C@@H](N)Cc1ccc(O)cc1)C(=O)N[C@@H](Cc1ccccc1)C(=O)NCC(=O)N[C@@H](Cc1ccc(O)cc1)C(=O)N1CCC[C@H]1C(=O)N[C@@H](CO)C(N)=O`, for which the results for the IC50 against Mu-type opioid receptor [14] and against Mu-type opioid receptor [15] were more than 4000 nM and more than 15000 nM, respectively.
